Consider six molecules from PMC8037142, “Design, Synthesis, Molecular Modeling and Antitumor Evaluation of Novel Indolyl-Pyrimidine Derivatives with EGFR Inhibitory Activity” (Molecules, 2021).

For series [1], the system named is HepG2 liver cancer cell line. Briefly: Resazurin Cell Growth Inhibition Assay, HepG2. The format is cell-based, human. As to conditions: HepG2, 48 h, mean ± SD of three experiments, read-out: Cytotoxic Activity IC50. On the procedure:
(§1) Compounds 1–4 were assessed for their in vitro cytotoxic activity against three human cell lines i.e., breast (MCF-7), liver (HepG2), colon (HCT-116) cancer cell lines as well as in lung fibroblast (WI38) normal cell line using the Resazurin Cell Growth Inhibition Assay. Both erlotinib and 5-Fluorouracil (5-FU) were used as reference drugs. Concentrations of the tested compounds that give about 50% inhibition of cell viability (IC50, mean of triplicate) in µM were obtained. […] However, if replaced by a hydrazone substituent, a more prominent efficacy toward the three cancer cell lines was observed. […] The most promising in vitro antiproliferative activity was obtained when the hydrazone is bearing electron-withdrawal groups i.e., 4-chlorobenzylidene moiety (compound 3f), 3,4-dichloro benzylidene moiety (compound 3g) and 4-fluorobenzylidene moiety (compound 3h) compared to the standard treatment (Table 1, Figure 5). The inhibitory activity of compounds was reduced when the hydrazone group is bearing electron donating groups i.e., 4-methyl group (compound 3b), 2-methoxy group (compound 3c), 4-hydroxy (compound 3d) and 4-dimethylamino group (compound 3e). The trend of antiproliferative activity of compounds […] against all tested cell lines has the following descending order: (3g > 3h >3f >3a >3b > 3c > 3d > 3e). […]. […] This is mainly because this compound has the highest lipophilicity as well as less electron density as it has 2-Cl atoms (more electronegativity) on the indolyl pyrimidine-thiazolidinone.
(§2) In vitro cytotoxicity was measured according to the Resazurin Cell Growth Inhibition Assay Alamar Blue or Resazurin (Promega, Mannheim, Germany) reduction assay was used to assess the cytotoxicity of the studied samples. The assay tests cellular viability and mitochondrial function. Briefly, adherent cells were grown in tissue culture flasks, and then harvested by treating the flasks with 0.025% trypsin and 0.25 mM EDTA for 5 min. Once detached, cells were washed, counted, and an aliquot (5 × 10^3 cells) were placed in each well of a 96-well cell culture plate in a total volume of […]. Cells were allowed to attach overnight and then treated with samples. […]. Each assay was performed as triplicates. […] […]. The viability was compared based on a comparison with untreated cells. IC50 (on cancer cells) were the concentration of sample required to inhibit 50% of the cell proliferation and were calculated from a calibration curve by a linear regression using Microsoft Excel.

Series [2] in a line: Resazurin Cell Growth Inhibition Assay, WI38 normal cells. The format is cell-based. As to conditions: human, WI38 normal lung fibroblast cells, WI-38 normal cells, mean ± SD of three experiments, read-out: Cytotoxic Activity IC50. On the procedure:
as §1, §2
Background: Resazurin is reduced to fluorescent resorufin, in cell work by metabolically active cells.

The subject of series [3] is MCF-7, HepG2 and HCT-116 cancer cell lines. Briefly: Resazurin assay, range over the three cancer cell lines. The format is cell-based. As to conditions: Homo sapiens; range over MCF-7, HepG2 and HCT-116; read-out: IC50 range against the cancer cell lines. As for the experimental part: Compounds 1–4 were assessed for their in vitro cytotoxic activity against three human cell lines i.e., breast (MCF-7), liver (HepG2), colon (HCT-116) cancer cell lines as well as in lung fibroblast (WI38) normal cell line using the Resazurin Cell Growth Inhibition Assay. Both erlotinib and 5-Fluorouracil (5-FU) were used as reference drugs. Concentrations of the tested compounds that give about 50% inhibition of cell viability (IC50, mean of triplicate) in µM were obtained. […] However, if replaced by a hydrazone substituent, a more prominent efficacy toward the three cancer cell lines was observed. […] The most promising in vitro antiproliferative activity was obtained when the hydrazone is bearing electron-withdrawal groups i.e., 4-chlorobenzylidene moiety (compound 3f), 3,4-dichloro benzylidene moiety (compound 3g) and 4-fluorobenzylidene moiety (compound 3h) compared to the standard treatment (Table 1, Figure 5). […]
In vitro cytotoxicity was measured according to the Resazurin Cell Growth Inhibition Assay Alamar Blue or Resazurin (Promega, Mannheim, Germany) reduction assay was used to assess the cytotoxicity of the studied samples. […] Once detached, cells were washed, counted, and an aliquot (5 × 10^3 cells) were placed in each well of a 96-well cell culture plate in a total volume of 100 mL. […]

Series [4] relates to MCF-7 breast cancer cell line. Briefly: Resazurin Cell Growth Inhibition Assay, MCF-7. As to conditions: Homo sapiens, MCF7; MCF-7, 48 h, mean ± SD of three experiments; read-out: Cytotoxic Activity IC50. The format is cell-based. On the procedure: as §1, §2
Series [5] deals with HCT-116 colon cancer cell line. Nature of the series: Resazurin Cell Growth Inhibition Assay, HCT-116. In kind it is cell-based, human. As to conditions: HCT-116, 48 h, mean ± SD of three experiments, read-out: Cytotoxic Activity IC50. On the procedure:
as §1, §2

Series [6] deals with Ehrlich ascites carcinoma (EAC). Nature of the series: In vivo antitumor assay in EAC tumor bearing mice. Particulars: 0.5 mg/mouse for nine days; for Tumor Volume: ascitic fluid; for MST (mean survival time): mean of two experiments; for Viable Tumor Cell Count: trypan blue. On the procedure: The antitumor activity of these compounds was assessed by the change in tumor volume, viable cell count, mean survival time (MST) and % increase in lifespan (% ILS) of the EAC tumor bearing mice and 5-FU (standard treatment). The mean survival time (MST) and % increase in lifespan (% ILS) of EAC tumor bearing mice, as well as the influence of these compounds on viable tumor cells and the tumor volume, are shown in Table 2. The hematological profile of these mice was also assessed in comparison with the standard treatment with 5-FU, and no obvious effect on RBCs or WBCs was observed. […] MST = (day of first death + day of last death)/2 %ILS = [(MST of treated group/MST of control group) − 1] × 100 […]
In vivo antitumor evaluation was carried out as previously reported (see Supplementary Materials).
2. Biological Evaluation Details: a) In vivo antitumor assay: Materials . Adult Swiss male mice (weighing 20 -25 g) were obtained from the Department of Pharmacology, Faculty of Pharmacy, Mansoura University, Egypt.
They were kept in microlon boxes at temperature 25 ± 2 °C with a regular 12 hrs light/dark cycle. In addition, food and water were available. EAC cells (procured from NCI, Cairo, Egypt) were harvested and prepared, then their total number was counted.
Procedure. 7 Groups of mice ( n = 4) were used.
Group 1: Negative control (no EAC cells) - received normal saline.
Group 2: Positive control (EAC cells) - received normal saline.
Group 3: EAC cells - treated with compound 3g (0.5 mg/mouse).
Group 4: EAC cells - treated with compound 4f (0.5 mg/mouse).
Group 5: EAC cells - treated with compound 4g (0.5 mg/mouse).
Group 6: EAC cells - treated with compound 4h (0.5 mg/mouse).
Group 7: EAC cells - treated with 5-fluorouracil (0.5 mg/mouse).
2 x 10^6 EAC cells were injected intraperitoneally in each mouse (groups 2-7). After […]
for nine days, then blood samples were withdrawn for assessment of blood count.
Determination of tumor volume
The ascetic fluid was gathered from the peritoneal cavity and its volume was determined. It was then centrifuged, and the packed tumor cell volume was measured.
Determination of viable tumor cell count
100 μL Sample of EAC cells (from three mice per group) was utilized and diluted twenty times with saline. Cells were stained with trypan blue, viable cells are not stained, while the dead ones are stained. The number of viable cells was calculated.

For the next series, the target named is EGFR kinase (Homo sapiens, UniProt P00533). Briefly: In vitro EGFR inhibitory assay (EnzyChrom Kinase Assay Kit EKIN-400). As to conditions: for inhibition at 10 µM: read-out: % Inhibition of EGFR.

The structures appear in SMILES notation. Like-named read-outs stand apart in the source and are kept apart here.

Chain of EGFR kinase (P00533 25-1210): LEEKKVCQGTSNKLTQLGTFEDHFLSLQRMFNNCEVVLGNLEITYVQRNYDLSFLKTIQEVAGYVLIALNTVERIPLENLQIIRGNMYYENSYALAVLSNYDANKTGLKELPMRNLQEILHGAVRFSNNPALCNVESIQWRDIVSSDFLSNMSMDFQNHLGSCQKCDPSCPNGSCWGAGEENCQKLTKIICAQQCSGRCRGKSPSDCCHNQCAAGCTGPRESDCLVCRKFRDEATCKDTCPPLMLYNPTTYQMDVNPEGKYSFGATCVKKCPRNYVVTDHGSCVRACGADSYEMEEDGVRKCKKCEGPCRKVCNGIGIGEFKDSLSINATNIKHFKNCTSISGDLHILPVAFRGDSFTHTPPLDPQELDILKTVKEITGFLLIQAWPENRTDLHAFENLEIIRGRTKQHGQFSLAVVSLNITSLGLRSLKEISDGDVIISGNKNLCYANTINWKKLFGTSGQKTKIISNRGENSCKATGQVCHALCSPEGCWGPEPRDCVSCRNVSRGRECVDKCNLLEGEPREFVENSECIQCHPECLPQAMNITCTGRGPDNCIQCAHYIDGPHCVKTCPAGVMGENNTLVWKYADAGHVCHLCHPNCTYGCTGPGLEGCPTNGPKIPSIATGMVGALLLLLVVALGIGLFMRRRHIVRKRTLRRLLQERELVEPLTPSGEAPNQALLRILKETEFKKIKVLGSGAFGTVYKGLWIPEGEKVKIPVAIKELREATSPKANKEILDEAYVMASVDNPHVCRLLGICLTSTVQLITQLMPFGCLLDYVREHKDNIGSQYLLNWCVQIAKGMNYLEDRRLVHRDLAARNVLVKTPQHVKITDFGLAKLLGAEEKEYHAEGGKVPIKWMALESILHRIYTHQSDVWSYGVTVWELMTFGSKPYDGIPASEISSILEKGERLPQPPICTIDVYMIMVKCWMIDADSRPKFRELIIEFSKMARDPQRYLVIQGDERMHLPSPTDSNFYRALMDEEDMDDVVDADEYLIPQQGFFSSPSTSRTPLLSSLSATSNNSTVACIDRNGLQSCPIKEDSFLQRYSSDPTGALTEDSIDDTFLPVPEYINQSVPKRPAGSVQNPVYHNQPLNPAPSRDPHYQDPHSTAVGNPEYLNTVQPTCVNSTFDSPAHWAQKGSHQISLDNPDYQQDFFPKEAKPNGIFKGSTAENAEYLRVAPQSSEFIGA
Description for EGFR kinase: A first-generation EGFR inhibitor, erlotinib, was used as standard treatment. […] IC50 for these compounds was determined. […] In addition, 20 µL reaction mixture containing the EGFR kinase, ATP, and substrate in the provided assay buffer. Set up a blank control that contains ATP and substrate but no enzyme. Incubate at desired temperature for 30 min. Prepare 900 µL 10µM (adenosine diphosphate) ADP premix by mixing 3 µL of 3 mM standard and 897 µL distilled water. Transfer 20 µL standards into separate wells of the plate. Prepare enough working reagent for each well. Add 40 µL working reagent to each assay well. Tap plate to mix. Incubate at room temperature for 10 min. Read fluorescence intensity at λexc = 530nm and λem = 590 nm, and then calculate kinase activity.

The term IC50 denotes the concentration at which inhibition is half-maximal. What is called melting point is the temperature, or range, at which the solid turns liquid. `CCOC(=O)C1=C(C)NC(=S)NC1c1c[nH]c2ccccc12` (stereo not shown) [Compound 1, Ethyl 4-(1H-indol-3-yl)-6-methyl-2-thioxo-1,2,3,4-tetrahydropyrimidine-5-Carboxylate] yielded a melting point of 245 to 247 °C. In addition, in series [1] (Homo sapiens), the half-inhibitory concentration (IC50) turned out to be 28.8 ± 2.25 µM. Moreover, in series [2], the IC50 at 48 h amounted to 30 ± 1.2 µM. Moreover, the IC50 in series [3] is 26.8 to 28.2 µM. In addition, the IC50 in series [4] is 26.8 ± 2.2 µM. Also, the half-inhibitory concentration (IC50) in series [5] (Homo sapiens) came out at 27.2 ± 1.11 µM.

With `CC1=C(C(=O)NN)C(c2c[nH]c3ccccc23)NC(=S)N1` (stereo not shown) [Compound 2, 4-(1H-indol-3-yl)-6-methyl-2-thioxo-1,2,3,4-tetrahydropyrimidine-5-carbohydrazide], the melting point is 208 to 210 °C. For the same molecule, in series [1] (Homo sapiens), the IC50 stood at 25.5 ± 2.17 µM. In series [2], the IC50 at 48 h was 40.5 ± 2.25 µM. Further, the IC50 in series [3] lay within 21.6 to 25.5 µM. Also, in series [4], the IC50 was 21.6 ± 1.8 µM. Also, in series [5] (Homo sapiens), the IC50 was 22.2 ± 1.5 µM.

Usually inhibition stands for the percentage by which the read-out fell short of the control. For the molecule `CC1=C(C(=O)NN=Cc2ccc(Cl)c(Cl)c2)C(c2c[nH]c3ccccc23)NC(=S)N1` (stereo not shown) [Compound 3g, 4-(1H-indol-3-yl)-6-methyl-2-thioxo-1,2,3,4-tetrahydropyrimidine-5-carboxylic acid (3,4-dichloro-benzylidene)-hydrazide], the IC50 in series [1] (Homo sapiens) was found to be 10 ± 2.46 µM. In addition, the IC50 at 48 h in series [2] was 30 ± 3.72 µM. Besides, in series [6], the “Tumor Volume” value is on record as 2.97 mL, the “MST (mean survival time)” value came out at 30 days and the “Viable Tumor Cell Count” value is on record as 48.00 10^6/mL. In addition, the IC50 in series [4] was 9 ± 2.4 µM. Also, in series [5] (Homo sapiens), the IC50 came out at 8.5 ± 2.3 µM. In addition, on EGFR kinase, the midpoint of inhibition, the IC50, lay at 0.5 ± 0.04 µM and the inhibition at 10 µM turned out to be 53%.

With `CC1=C(C(=O)NN2C(=O)CSC2c2ccc(Cl)cc2)C(c2c[nH]c3ccccc23)NC(=S)N1` (stereo not shown) [Compound 4f, N-(2-(4-chlorophenyl)-4-oxothiazolidin-3-yl)-4-(1H-indol-3-yl)-6-methyl-2-thioxo-1,2,3,4-tetrahydropyrimidine-5-carboxamide], in series [1] (Homo sapiens), the IC50 came to 8.9 ± 1.73 µM. In series [2], the IC50 at 48 h is 19.3 ± 5.87 µM. Further, in series [6], the “Tumor Volume” value stood at 2.50 mL, the “MST (mean survival time)” value amounted to 37 days and the “Viable Tumor Cell Count” value is given as 40.70 10^6/mL. For the same molecule, in series [4], the IC50 came to 8.01 ± 1.83 µM. Besides, the half-inhibitory concentration (IC50) in series [5] (Homo sapiens) amounted to 8.02 ± 0.26 µM. In addition, on EGFR kinase, it took 0.38 ± 0.02 µM to reach half-maximal inhibition (IC50) and the inhibition at 10 µM came out at 71%.

With `CC1=C(C(=O)NN2C(=O)CSC2c2ccc(Cl)c(Cl)c2)C(c2c[nH]c3ccccc23)NC(=S)N1` (stereo not shown) [Compound 4g, N-(2-(3,4-dichlorophenyl)-4-oxothiazolidin-3-yl)-4-(1H-indol-3-yl)-6-methyl-2-thioxo-1,2,3,4-tetrahydropyrimidine-5-carboxamide], the IC50 in series [1] turned out to be 6.6 ± 1.4 µM; in series [1] (Homo sapiens) it was 5.02 µM; in series [4] it was 5.1 ± 1.14 µM; in series [5], 5.02 ± 1.19 µM; in series [5] (Homo sapiens), 6.6 µM. In series [2], the IC50 at 48 h came out at 16.3 ± 3.21 µM. Also, in series [6], the “Tumor Volume” value is recorded as 0.89 mL. Besides, the “MST (mean survival time)” value in series [6] worked out at 46 days. Further, in series [6], the “Viable Tumor Cell Count” value is on record as 21.70 10^6/mL. In addition, the inhibition at 10 µM on EGFR kinase was found to be 79%.

Consider `CC1=C(C(=O)NN2C(=O)CSC2c2ccc(F)cc2)C(c2c[nH]c3ccccc23)NC(=S)N1` (stereo not shown) [Compound 4h, N-(2-(4-fluorophenyl)-4-oxothiazolidin-3-yl)-4-(1H-indol-3-yl)-6-methyl-2-thioxo-1,2,3,4-tetrahydropyrimidine-5-carboxamide], for which the IC50 in series [1] (Homo sapiens) worked out at 7.5 ± 1.29 µM. Further, the IC50 at 48 h in series [2] was found to be 18.1 ± 2.06 µM. For the same molecule, in series [6], the “Tumor Volume” value is 1.18 mL, the “MST (mean survival time)” value was determined as 40 days and the “Viable Tumor Cell Count” value was 28.50 10^6/mL. In series [4], the IC50 was determined as 6.6 ± 1.28 µM. The IC50 in series [5] (Homo sapiens) stood at 7.02 ± 0.46 µM. Besides, at EGFR kinase, the IC50 worked out at 0.39 ± 0.02 µM and the inhibition at 10 µM is 70%.
